The values that follow come from patent US9976141B2, “Compositions and methods for inhibiting gene expression of Hif2alpha” (Arrowhead Madison Inc., priority 2015, dated 2018).

Strand notation (5' to 3'): a small letter for the sugar, then the base; units joined by * are phosphorothioate-linked, units joined directly phosphodiester-linked; [ ] holds rarer units or linkages, { } end groups; capitals alone tell only the bases. [UNA-N] = unlocked nucleic acid (N: the base); [invdT] = inverted (3'-3') thymidine; d = 2'-deoxy (DNA); m = 2'-O-methyl; f = 2'-fluoro

As a reminder, the EC50 is the midpoint of the concentration-response curve.

The subject of data set [1] is human EPAS1 (Hif2α) cDNA in psiCHECK2 (Renilla luciferase/EPAS1 fusion mRNA) in Hep3B cells. The data set can be described thus: Hif2α RNAi trigger EC50 determination, dual-luciferase reporter assay. The settings on record: UNA modified at site 6 or 7, EPAS1-psiCHECK2, same conditions, read-out: EC50 UNAs EC50. It is filed as cell-based. An excerpt: Candidate sequences were identified by in silico analysis and screened as chemically modified canonical siRNAs in vitro. For screening purposes, the human EPAS1 (Hif2α) cDNA sequence (accession #NM 001430) was synthesized and cloned (DNA 2.0, Menlo Park, Calif.) into a commercially-available reporter-based screening plasmid, psiCHECK2 (Promega, Madison, Wis.) which generated a Renilla luciferase/EPAS1 fusion mRNA. For RNAi trigger efficacy evaluation, Hep3B cells, a human hepatocellular carcinoma line, were plated at 10,000 cells per well in 96-well format. Each of the 187 EPAS1 RNAi triggers, in two subsets, was co-transfected at two concentrations, 1 nM and 0.1 nM, with 25 ng EPAS1-psiCHECK2 plasmid DNA per well and 0.2 μL LipoFectamine 2000 (Life Technologies) per well. Gene knockdown was determined by measuring Renilla luciferase levels normalized to the levels of constitutively-expressed firefly luciferase, also present on the psiCHECK-2 plasmid, using the Dual Luciferase Reporter Assay (Promega, Madison, Wis.) Table 5.
The eight best canonical sequences were further evaluated by determining the EC50 concentration. Each trigger was assessed for knockdown under the same conditions and assays as above, but at 10 different concentrations ranging from 0.00051 nM to 10 nM. EC50 were determined using GraphPad Prism software. Each of the top five canonical sequences were modified to contain UNA at sites 6 and 7. These triggers, along with their parent canonical sequences, were evaluated side-by-side for EC50 concentration determination using the same conditions and assays as above, Table 6.
In general terms: A reporter such as luciferase makes a cellular process visible.

In data set [2] the test system is human (tumor) Hif2α (EPAS1) mRNA. Briefly: Hif2α expression in RCC tumor bearing mice after single injection of RGD targeted conjugates, 72 h, RT-qPCR (Table 11). Format: in vivo. To be noted: trigger 80 μg, polymer 126 280 μg. Here is the method: Female athymic nude mice were anesthetized with ˜3% isoflourane and placed in the right lateral decubitus position. A small, 0.5-1 cm, longitudinally abdominal incision in the left flank was made. Using a moist cotton swab, the left kidney was lifted out of the peritoneum and gently stabilized. Just before injection, a 1.0 ml syringe was filled with the cell/Matrigel mixture and a 27 gauge needle catheter was attached to the syringe tip. The filled syringe was then attached to a syringe pump (Harvard Apparatus, model PHD2000) and primed to remove air. The tip of a 27-gauge needle catheter attached to a syringe was inserted just below the renal capsule near the caudal pole and the tip of the needle was then carefully advanced cranially along the capsule 3-4 mm. A 10 μl aliquot of 2:1 (vol:vol) cell/matrigel mixture containing about 300,000 cells was slowly injected into the kidney parenchyma using a syringe pump. The needle was left in the kidney for 15-20 seconds to ensure the injection was complete. The needle was then removed from the kidney and a cotton swab was placed over the injection site for 30 seconds to prevent leakage of the cells or bleeding. The kidney was then gently placed back into the abdomen and the abdominal wall was closed. Serum was collected every 7-14 days after implantation to monitor tumor growth using a commercial SEAP assay kit. For most studies, tumor mice were used 5-6 weeks after implantation, when tumor measurements were typically around 4-8 mm.
In preparation for quantitative PCR, total RNA was isolated from tissue samples homogenized in TriReagent (Molecular Research Center, Cincinnati, Ohio) following the manufacturer's protocol. Approximately 500 ng RNA was reverse-transcribed using the High Capacity cDNA Reverse Transcription Kit (Life Technologies). For human (tumor) Hif2α (EPAS1) expression, pre-manufactured TaqMan gene expression assays for human Hif2α (Catalog #4331182) and CycA (PPIA) Catalog #: 4326316E) were used in biplex reactions in triplicate using TaqMan Gene Expression Master Mix (Life Technologies) or VeriQuest Probe Master Mix (Affymetrix). For human (tumor) VegFa (VEGFA) expression, pre-manufactured TaqMan gene expression assays for human VegFa (Catalog #4331182, Assay ID: Hs00900055) and CycA (Part#: 4326316E) were used in biplex reactions in triplicate using TaqMan Gene Expression Master Mix (Life Technologies) or VeriQuest Probe Master Mix (Affymetrix). Quantitative PCR was performed by using a 7500 Fast or StepOnePlus Real-Time PCR system (Life Technologies). The ΔΔCT method was used to calculate relative gene expression.
RGD targeted HiF2α-RNAi trigger delivery polymer conjugates were formed using polymer 126, 100A, or 006. The RNAi trigger, μg indicates the quantity of trigger reacted with polymer. The polymer was modified with the indicated RGD mimic and PEG modifying agents as described above. Kidney RCC tumor-bearing mice were generated as described and treated with a single tail vein injection of isotonic glucose (G1) or the indicated Hif2α RNAi trigger-delivery polymer conjugate. Mice were euthanized 72 h (day 4) after injection and total RNA was prepared from kidney tumor using Trizol reagent following manufacturer's recommendation. Relative HiF2α mRNA levels were determined by RT-qPCR as described and compared to mice treated with delivery buffer (isotonic glucose) only (Table 11).
(Real-time PCR tracks product formation cycle by cycle.)

For data set [3] the test system is unchanged. Briefly: Hif2α knockdown in orthotopic RCC tumor bearing mice, single injection of RNAi trigger-delivery polymer conjugate, RT-qPCR (Table 7). Format: in vivo. The settings on record: single tail vein injection, relative to isotonic glucose. The method in brief: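 A single intravenous dose of Hif2α RNAi trigger–delivery polymer conjugate, or isotonic glucose vehicle, was given to nude mice with subcapsular A498-SEAP renal tumours (about 5–6 weeks old). At the indicated time, tumour RNA was assayed by biplex TaqMan qPCR against CycA, and relative expression was calculated by ΔΔCT versus vehicle.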

Consider “AD00988: Hif2α RNAi trigger, XD-02335 sequence modified to contain UNA at site 6 (antisense dTfGmUfAmA[UNA-A]mAfCmAfAmUfUmGfUmGfUmAfCmUdT*dT; sense fAmGfUmAfCmAfCmAfAmUfUmGfUmUfUmUfAmCfA[invdT])”, for which the half-maximal effective concentration (EC50) in data set [1] came to 0.841 nM. Take “AD00989: Hif2α RNAi trigger, XD-02371 sequence modified to contain UNA at site 6 (antisense dTfCmUfAmG[UNA-C]mAfAmCfAmAfAmAfCmCfUmUfAmAdT*dT; sense fUmUfAmAfGmGfUmUfUmUfGmUfUmGfCmUfAmGfA[invdT])”: the EC50 in data set [1] amounted to 0.375 nM. Take “AD00990: Hif2α RNAi trigger, XD-02404 sequence modified to contain UNA at site 6 (antisense dTfAmAfAmU[UNA-C]mGfUmUfAmCfGmUfUmGfAmCfAmGdT*dT; sense dTfGmAfGmGfAmGfCmUfUmGfUmGfUmGfUmUfCmGdT*dT)”: the EC50 in data set [1] is 0.153 nM. Regarding “AD00991: Hif2α RNAi trigger, XD-02407 sequence modified to contain UNA at site 6 (antisense dTfUmUfCmA[UNA-U]mGfAmAfAmUfCmGfUmUfAmCfGmUdT*dT; sense fAmCfGmUfAmAfCmGfAmUfUmUfCmAfUmGfAmAfA[invdT])”, the EC50 in data set [1] was determined as 0.35 nM. On to “AD00992: Hif2α RNAi trigger, XD-02415 sequence modified to contain UNA at site 6 (antisense dTfAmAfGmU[UNA-U]mAfAmGfCmUfCmCfCmAfUmAfCmAdT*dT; sense fUmGfUmAfUmGfGmGfAmGfCmUfUmAfAmCfUmUfA[invdT])”, for which the EC50 in data set [1] was found to be 0.142 nM. Turning to “AD00993: Hif2α RNAi trigger, XD-02335 sequence modified to contain UNA at site 7 (antisense dTfGmUfAmAfA[UNA-A]fCmAfAmUfUmGfUmGfUmAfCmUdT*dT; sense fAmGfUmAfCmAfCmAfAmUfUmGfUmUfUmUfAmCfA[invdT])”, the EC50 in data set [1] turned out to be 0.55 nM. Regarding “AD00994: Hif2α RNAi trigger, XD-02371 sequence modified to contain UNA at site 7 (antisense dTfCmUfAmGfC[UNA-A]fAmCfAmAfAmAfCmCfUmUfAmAdT*dT; sense fUmUfAmAfGmGfUmUfUmUfGmUfUmGfCmUfAmGfA[invdT])”, the EC50 in data set [1] came to 0.0807 nM. Same read-out and setting: the figure for “AD00995: Hif2α RNAi trigger, XD-02404 sequence modified to contain UNA at site 7 (antisense dTfAmAfAmUfC[UNA-G]fUmUfAmCfGmUfUmGfAmCfAmGdT*dT; sense dTfGmAfGmGfAmGfCmUfUmGfUmGfUmGfUmUfCmGdT*dT)” is 0.169 nM; for “AD00996: Hif2α RNAi trigger, XD-02407 sequence modified to contain UNA at site 7 (antisense dTfUmUfCmAfU[UNA-G]fAmAfAmUfCmGfUmUfAmCfGmUdT*dT; sense fAmCfGmUfAmAfCmGfAmUfUmUfCmAfUmGfAmAfA[invdT])” it is 0.118 nM.

In the case of “AD00997: Hif2α RNAi trigger, XD-02415 sequence modified to contain UNA at site 7 (antisense dTfAmAfGmUfU[UNA-A]fAmGfCmUfCmCfCmAfUmAfCmAdT*dT; sense fUmGfUmAfUmGfGmGfAmGfCmUfUmAfAmCfUmUfA[invdT])”, the EC50 in data set [1] was 0.183 nM. As for “AD01031: Hif2α RNAi trigger duplex used in the multi-dose conjugate of Example 15 (antisense TUUCAUGAAAUCGUUACGUTT; sense ACGUAACGAUUUCAUGAAAT; Hif2alpha RNAi agent antisense strand; modified_base 2,4,6,8,10,12,14,16,18 /mod_base = “2′-deoxy-2′-fluoro corresponding nucleoside”; modified_base 3,5,7,9,11,13,15,17,19 /mod_base = “2′-O-methyl corresponding nucleoside”; modified_base 21 /mod_base = “5′-phosphorothioate corresponding nucleotide”; Hif2alpha RNAi agent sense strand; modified_base 1,3,5,7,9,11,13,15,17,19 /mod_base = “2′-deoxy-2′-fluoro corresponding nucleoside”; modified_base 2,4,6,8,10,12,14,16,18 /mod_base = “2′-O-methyl corresponding nucleoside”; modified_base 20 /mod_base = “3′-3′-linked nucleotide”; modified_base 1 /mo)”, the “Relative Expression day 4 (Hif2α)” value turned out to be 0.311 in data set [2] (RGD-PEG8-ACit-PABC-PNP 0.4×, PEG6-ACit-PABC-PNP) and 0.300 in data set [2] (RGD-PEG8-HyNic 0.5×, PEG12-ACit-PABC-PNP). In data set [3] (RNAi trigger 80 μg, polymer 126 400 μg), the “Relative Expression day 4 (Hif2α mRNA in kidney tumor)” value is 0.20. Turning to “AD03266 (antisense UUUCAUGAAAUCGUUACGUUG; sense ACGUAACGAUUUCAUGAAAT; Hif2alpha RNAi agent antisense strand; modified_base 2,4,6,8,14 /mod_base = “2′-deoxy-2′-fluoro corresponding nucleoside”; modified_base 1,3,5,7,9,10,11,12,13,15,16,17,18,19,20,21 /mod_base = “2′-O-methyl corresponding nucleoside”; modified_base 2,3,20,21 /mod_base = “5′-phosphorothioate corresponding nucleotide”; Hif2alpha RNAi agent sense strand; modified_base 7,8,9 /mod_base = “2′-deoxy-2′-fluoro corresponding nucleoside”; modified_base 1,2,3,4,5,6,10,11,12,13,14,15,16,17,18,19 /mod_base = “2′-O-methyl corresponding nucleoside”; modified_base 20 /mod_base = “3′-3′-linked nucleotide”; modi)”, in data set [3] (RNAi trigger 50 μg, polymer 064 125 μg), the “Relative Expression day 4 (Hif2α mRNA in kidney tumor)” value is reported as 0.408.
